Experimental data as given in patent US7435832B2, “Crystals including a malic acid salt of a 3-pyrrole substituted 2-indolinone, and compositions thereof” (Pharmacia & Upjohn Company, priority 2001, dated 2008).
Where a name gives a salt, the structure may show the parent alone.

Experiments:
Format in all cases: physicochemical
[1] = Dynamic moisture sorption gravimetry (DMSG), hygroscopicity; conditions: for Water absorbed (moisture sorption): across the 0-90% relative humidity range, 25° C.
Procedure: X-ray diffraction (XRD) patterns were measured on a Scintag X2 diffractometer (Thermo ARL, Ecublens, Switzerland) equipped with a theta-theta goniometer. Melting points were determined using a TA Instruments 2920 differential scanning calorimeter (TA Instruments, New Castle, Del.) with standard crimped pans and a heating rate of 10° C./minute. Hygroscopicity was assessed by dynamic moisture sorption gravimetry (DMSG) using a Controlled Atmosphere Microbalance (Pharmacia Corp., Kalamazoo, Mich.). All chemicals used are available from Aldrich Chemical Co., Milwaukee, Wis., unless otherwise specified. N-[2-(diethylamino)ethyl]-5-[(5-fluoro-1,2-dihydro-2-oxo-3H-indol-3-ylidene)methyl]-2,4-dimethyl-1H-pyrrole-3-carboxamide was prepared as the free base by a procedure similar to that described in Example 80 of PCT International Publication No. WO 01/60814 (Tang et al.).
Dynamic Moisture Sorption Gravimetry (DMSG). DMSG isotherms were collected on the variable temperature controlled atmosphere microbalance. Approximately 10 mg samples were used in the balance. Samples were run as received. The humidity was sequentially set between 0 and 90% relative humidity (RH) in 3% RH steps. The mass was then measured every two minutes. The RH was changed to the next value when the mass of the sample was stable to within 0.5 microgram in 480 seconds. A Visual Basic program was used to control the data collection and export the information to an Excel spreadsheet.

[2] = Solubility in water; conditions: in water at 25° C.
Procedure: The solubility of Crystal Form I of the L-malic acid salt of N-[2-(diethylamino)ethyl]-5-[(5-fluoro-1,2-dihydro-2-oxo-3H-indol-3-ylidene)methyl]-2,4-dimethyl-1H-pyrrole-3-carboxamide was determined to be 5 mg/mL in water at 25° C.

[3] = Solid state stability study of bulk crystals (HPLC analysis, PXRD); conditions: for Purity (Area %) / Total Impurities (Area %): HPLC
Source text: As referred to in the present application, “stable” in bulk drug stability tests means that at least about 97% by weight, preferably at least about 98% by weight, and more preferably at least about 99% by weight of the bulk drug remains unchanged after storage under the indicated conditions for the indicated time.
A solid state stability study of Crystal Form I of the L-malic acid salt of N-[2-(diethylamino)ethyl]-5-[(5-fluoro-1,2-dihydro-2-oxo-3H-indol-3-ylidene)methyl]-2,4-dimethyl-1H-pyrrole-3-carboxamide was also conducted (Table 2).

| SMILES | Water absorbed upon exposure to humidity ([1]; 80% relative humidity) | Water absorbed (moisture sorption) [1] | solubility [2] [µg/mL] | Purity (Area %) ([3]; 2 weeks at 60° C./75% RH) | Total Impurities (Area %) ([3]; 2 weeks at 60° C./75% RH) | Purity (Area %) ([3]; 2 weeks at 60° C./ambient RH) | Total Impurities (Area %) ([3]; 2 weeks at 60° C./ambient RH) | Purity (Area %) ([3]; 2 weeks at 80° C./ambient RH) | Total Impurities (Area %) ([3]; 2 weeks at 80° C./ambient RH) | Purity (Area %) ([3]; 4 weeks at 60° C./75% RH) | Total Impurities (Area %) ([3]; 4 weeks at 60° C./75% RH) | Purity (Area %) ([3]; 4 weeks at 60° C./ambient RH) | Total Impurities (Area %) ([3]; 4 weeks at 60° C./ambient RH) | Purity (Area %) ([3]; 4 weeks at 80° C./ambient RH) | Total Impurities (Area %) ([3]; 4 weeks at 80° C./ambient RH) | Purity (Area %) ([3]; Initial) | Total Impurities (Area %) ([3]; Initial) | Degradation after aging ([3]; four weeks at 60° C./ambient RH, 60° C./75% RH and 80° C./ambient RH) | Change in crystal form by powder X-ray diffraction ([3]; two-week stability samples) |
| --- | --- | --- | --- | --- | --- | --- | --- | --- | --- | --- | --- | --- | --- | --- | --- | --- | --- | --- | --- |
| CCN(CC)CCNC(=O)c1c(C)[nH]c(/C=C2\C(=O)Nc3ccc(F)cc32)c1C [Crystal Form II, L-malic acid salt of N-[2-(diethylamino)ethyl]-5-[(5-fluoro-1,2-dihydro-2-oxo-3H-indol-3-ylidene)methyl]-2,4-dimethyl-1H-pyrrole-3-carboxamide] | at least 5 % by weight | over 15% | – | – | – | – | – | – | – | – | – | – | – | – | – | – | – | – | – |
| CCN(CC)CCNC(=O)c1c(C)[nH]c(/C=C2\C(=O)Nc3ccc(F)cc32)c1C [Crystal Form I, L-malic acid salt of N-[2-(diethylamino)ethyl]-5-[(5-fluoro-1,2-dihydro-2-oxo-3H-indol-3-ylidene)methyl]-2,4-dimethyl-1H-pyrrole-3-carboxamide] | – | less than 0.5% | 5000 | 99.6 | 1.2 | 98.2 | 1.1 | 99.5 | 1.2 | 100.1 | 2.2 | 100.4 | 1.2 | 98.0 | 3.1 | 99.7 | 1.5 | no significant degradation | no change in crystal form |
